Assay results as given in patent publication US5216124A, “Substituted cyclic tetrapeptides” (G. D. Searle & Co., priority 1991, dated 1993).
Counter-ions that a name gives are not always drawn. Positions of bridges follow the written chain, without caps; N, C: chain ends. Non-standard residues stand in square brackets, D forms with d. Residues, ends and D or L forms follow the SMILES beside them. Phe(4-F) = N[C@@H](Cc1ccc(F)cc1)C(=O)O; Dmt = Cc1cc(O)cc(C)c1C[C@H](N)C(=O)O; NMeCha = CN[C@@H](CC1CCCCC1)C(=O)O; NMeF = CN[C@@H](Cc1ccccc1)C(=O)O; 2Thi = N[C@@H](Cc1cccs1)C(=O)O; Cha = N[C@@H](CC1CCCCC1)C(=O)O; dPen = CC(C)(S)[C@@H](N)C(=O)O

What was measured:
δ opioid receptors = δ opioid receptors (Rattus norvegicus, UniProt P33533); assay: Opiate Binding Assay, displacement of 3[H]-DSLET; settings: ratio of mean IC50 μ to δ, above 1.0 = more specific for δ
CD Charles River mice = assay: Writhing Assay (PBQ-induced writhing); type: in vivo, mouse; settings: for number of mice out of ten in which peptide was active, Intragastric: 10 mg/kg i.g., PBQ i.p. 15 min after dosing; for number of mice out of ten in which peptide was active, Subcutaneous: 10 mg/kg s.c., PBQ i.p. 25 min after dosing
Text: The "Writhing Assay" is one of the most widely-used experimental procedures for measuring the analgesic activity of different narcotic and nonnarcotic analgesic agents, and involves the continuous, chemically-induced pain of visceral origin to an animal, such as a mouse or rat. [Gyires et al., Arch. int. Pharmacodyn, 267, 131-140 (1984); C. Vander Wende et al., Fed. Proc., 15, 494 (1956); Koster et al., Fed. Proc., 18, 412 (1959); and Witken et al., J. Pharmacol. Exp. Ther., 133, 400-408 (1961). ] Chemicals which may be used to induce this pain include phenylbenzoquinone (PBQ) and acetic acid. As a result of the chemical irritation to the animal, a characteristic stretching and writhing of the animal (dorsiflexion of the animal's back, extension of its hindlimbs an the strong contraction of its abdominal musculature) will generally occur. […] Drugs which reduce the number of writhes of the animal appear to restore the normal nociceptive threshold of the animal.
This assay was conducted generally in the manner described by R. I. Taber, "Predictive Value of Analgesic Assays in Mice and Rats,"Advances in Biochemical Psychopharmacology, 8, 191 (1974). The Methyl Ester Tetrapeptide and Test Tetrapeptides Nos. 1, 3, 4, 5, 6, 7, 8 and 9 were tested in this assay.
Two hundred CD Charles River mice, weighing 20 to 30 grams were used in this assay.
Twenty-five minutes after subcutaneous administration, and fifteen minutes after intragastric administration, to the mice of 10 mg per kilogram of body weight of either a Test Tetrapeptide or the Methyl Ester Tetrapeptide, […] of body weight of a 0.025% w/v solution of PBQ was injected intraperitoneally into each mouse. Some mice were given saline in place of a Test Tetrapeptide or the Methyl Ester Tetrapeptide, and were used as a control group.
Five minutes later, each mouse was individually placed into a glass beaker for observation, and the number of writhes occurring during the following ten-minute period was counted.
A tetrapeptide compound was considered to be "active" (to have produced analgesia in a mouse) if, in accordance with the conditions set forth above, and under the test criteria employed for this assay, after the administration of 10 mg per kilogram of body weight of the tetrapeptide to the mouse, the number of writhes elicited by a mouse injected with PBQ was equal to, or less than, one-half the median number of writhes recorded for the saline-treated control group of mice that day, as described by R. I. Taber, supra.
The standard initial screening dose of a compound employed in this assay was 10 mg per kilogram (mpk) of body weight for both routes of administration. If this initial screening dose of the tetrapeptide produced analgesia in seven of ten mice, then the effect of additional doses of the tetrapeptide on the writhing response was evaluated, and then the ED50 value (that dose of a Test Tetrapeptide or the Methyl Ester Tetrapeptide which produced analgesia in 50% of the mice to which the tetrapeptide was administered) was generally calculated. A maximum likelihood function was used to determine the ED50 value. (The slopes of the dose-response curves for all tetrapeptides analyzed were compared as described by Tallarida and Murray, Manual of Pharmacologic Calculations, Page 11 (Springer Verlag, N.Y., 1981)).

Sequence of δ opioid receptors (P33533 whole entry): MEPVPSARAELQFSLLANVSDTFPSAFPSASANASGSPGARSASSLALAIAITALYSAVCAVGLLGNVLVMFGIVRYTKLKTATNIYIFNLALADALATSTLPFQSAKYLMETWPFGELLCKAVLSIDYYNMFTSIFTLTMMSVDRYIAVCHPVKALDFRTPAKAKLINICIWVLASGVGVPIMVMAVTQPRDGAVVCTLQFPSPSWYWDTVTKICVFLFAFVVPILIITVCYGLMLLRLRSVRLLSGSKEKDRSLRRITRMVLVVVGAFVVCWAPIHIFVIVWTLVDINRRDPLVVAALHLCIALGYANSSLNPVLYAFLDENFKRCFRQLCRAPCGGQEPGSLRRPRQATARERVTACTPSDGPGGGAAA

SMILES	Mean IC50 Value μ/δ Ratio (δ opioid receptors; monohydrochloride)	Mean IC50 Value μ/δ Ratio (δ opioid receptors)	number of mice out of ten in which peptide was active, Intragastric (CD Charles River mice)	number of mice out of ten in which peptide was active, Subcutaneous (CD Charles River mice)	other results
Cc1ccc(CC(N)C(=O)N[C@@H]2CSSC(C)(C)[C@H](C(=O)O)NC(=O)[C@H](Cc3ccccc3)NC2=O)c(C)c1O (single isomer, unassigned) [Example 81 (Diastereomer B), 3-hydroxy-2,4-dimethylphenylalanyl-D-cysteinyl-L-phenylalanyl-3-mercapto-D-valine, cyclic (2→4)-disulfide, monohydrochloride]	19	–	–	–	–
Cc1cc(O)c(C)c(C)c1CC(N)C(=O)N[C@@H]1CSSC(C)(C)[C@H](C(=O)O)NC(=O)[C@H](Cc2ccccc2)NC1=O (single isomer, unassigned) [Example 82 (Diastereomer B), 2,3,6-trimethyltyrosyl-D-cysteinyl-L-phenylalanyl-3-mercapto-D-valine, cyclic (2→4)-disulfide, monohydrochloride]	–	81	–	–	–
COC(=O)[C@@H]1NC(=O)[C@H](CC2CCCCC2)NC(=O)[C@H](NC(=O)[C@@H](N)Cc2c(C)cc(O)cc2C)CSSC1(C)C [Example 46, 2,6-dimethyl-L-tyrosyl-D-cysteinyl-3-cyclohexyl-L-alanyl-3-mercapto-D-valine, cyclic (2→4)-disulfide, methyl ester, monohydrochloride] (H-[Dmt][dC][Cha][dPen]-OMe; disulfide 2-4)	–	0.6	4/10	5/10	–
COC(=O)[C@@H]1NC(=O)[C@H](Cc2ccc(F)cc2)NC(=O)[C@H](NC(=O)[C@@H](N)Cc2c(C)cc(O)cc2C)CSSC1(C)C [Example 67, 2,6-dimethyl-L-tyrosyl-D-cysteinyl-4-fluoro-L-phenylalanyl-3-mercapto-D-valine, cyclic (2→4)-disulfide, methyl ester, monohydrochloride] (H-[Dmt][dC][Phe(4-F)][dPen]-OMe; disulfide 2-4)	–	2.4	1/10	2/10	–
COC(=O)[C@@H]1NC(=O)[C@H](Cc2ccccc2)N(C)C(=O)[C@H](NC(=O)[C@@H](N)Cc2c(C)cc(O)cc2C)CSSC1(C)C [Example 39, 2,6-dimethyl-L-tyrosyl-D-cysteinyl-N-methyl-L-phenylalanyl-3-mercapto-D-valine, cyclic (2→4)-disulfide, methyl ester, monohydrochloride] (H-[Dmt][dC][NMeF][dPen]-OMe; disulfide 2-4)	–	6.0	5/10	4/10	–
Cc1cc(O)ccc1CC(N)C(=O)N[C@@H]1CSSC(C)(C)[C@H](C(=O)O)NC(=O)[C@H](Cc2ccccc2)NC1=O (single isomer, unassigned) [Example 5 (Diastereomer B)]	–	15	–	–	–
COC(=O)[C@@H]1NC(=O)[C@H](CC2CCCCC2)N(C)C(=O)[C@H](NC(=O)[C@@H](N)Cc2c(C)cc(O)cc2C)CSSC1(C)C [Example 53, 2,6-dimethyl-L-tyrosyl-D-cysteinyl-3-cyclohexyl-N-methyl-L-alanyl-3-mercapto-D-valine, cyclic (2→4)-disulfide, methyl ester, monohydrochloride] (H-[Dmt][dC][NMeCha][dPen]-OMe; disulfide 2-4)	–	12	3/10	3/10	–
Cc1ccc(CC(N)C(=O)N[C@@H]2CSSC(C)(C)[C@H](C(=O)O)NC(=O)[C@H](Cc3ccccc3)NC2=O)c(C)c1O (single isomer, unassigned) [Example 81 (Diastereomer A), 3-hydroxy-2,4-dimethylphenylalanyl-D-cysteinyl-L-phenylalanyl-3-mercapto-D-valine, cyclic (2→4)-disulfide, monohydrochloride]	0.1	–	–	–	–
COC(=O)[C@@H]1NC(=O)[C@H](Cc2ccccc2)NC(=O)C(NC(=O)[C@@H](N)Cc2c(C)cc(O)cc2C)CCSSC1(C)C (single isomer, unassigned) [Example 73, 2,6-dimethyl-L-tyrosylhomocysteinyl-L-phenylalanyl-3-mercapto-D-valine, cyclic (2→4)-disulfide, methyl ester, monohydrochloride]	0.10	–	–	6/10	number of mice out of ten in which peptide was active, Intragastric (CD Charles River mice; listed as Test Tetrapeptide No. 5, monohydrochloride, 10 mg/kg): 5/10
COC(=O)[C@@H]1NC(=O)[C@H](Cc2ccccc2)NC(=O)C(NC(=O)[C@@H](N)Cc2c(C)cc(O)cc2C)CCSSC1(C)C (single isomer, unassigned) [Example 72, 2,6-dimethyl-L-tyrosylhomocysteinyl-L-phenylalanyl-3-mercapto-D-valine, cyclic (2→4)-disulfide, methyl ester, monohydrochloride]	0.4	–	–	6/10	number of mice out of ten in which peptide was active, Intragastric (CD Charles River mice; listed as Test Tetrapeptide No. 4, monohydrochloride, 10 mg/kg): 1/10
Cc1cc(O)ccc1CC(N)C(=O)N[C@@H]1CSSC(C)(C)[C@H](C(=O)O)NC(=O)[C@H](Cc2ccccc2)NC1=O (single isomer, unassigned) [Example 5 (Diastereomer A)]	–	48	–	–	–
COC(=O)[C@@H]1NC(=O)[C@H](Cc2cccs2)NC(=O)[C@H](NC(=O)[C@@H](N)Cc2c(C)cc(O)cc2C)CSSC1(C)C [Example 60, 2,6-dimethyl-L-tyrosyl-D-cysteinyl-3-(2-thienyl)-L-alanyl-3-mercapto-D-valine, cyclic (2→4)-disulfide, methyl ester, monohydrochloride] (H-[Dmt][dC][2Thi][dPen]-OMe; disulfide 2-4)	–	1.4	–	–	–
